Laboratory results reported in PubChem BioAssay AID1918944 (Molecular Pharmacology Branch, DTP, NCI, 2023).
Several values for one entry are separate records, joined by “and”; a condition that tells them apart may be missing. Identical values can stand only once.

System: 786-0 complex spheroid viability
Assay: Anticancer human tumor 786-0 cell line growth inhibition;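 also: spheroids exposed to agents for seven days before readout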
Conditions: for viability, T/C: stronger effect = lower value
From the text: Multicellular complex tumor spheroid response to LSD1 Inhibitor Iadademstat in combination with a variety of drugs and investigational agents in selected tumor cell lines
The current study was undertaken to assess response to LSD1 inhibitors in combination with standard-of-care drugs and investigational agents in solid tumor complex spheroid models as well as in the K-562 leukemia. Complex spheroids include a stromal component modeled by human endothelial cells (HUVEC) and fibroblasts modeled by human mesenchymal stem cells (MSCs). The concentration ranges selected for each drug and investigational agent were based upon clinically achievable concentrations if the clinical Cmax of the agent was known.
Compounds. The drugs and investigational agents used in this study are listed on Table 1. All of the agents used, including staurosporine (NSC755774) and gemcitabine (NSC613327), were obtained from the Developmental Therapeutics Program, NCI. FDA-approved anticancer drugs are available from the NCI at http://dtp.nci.nih.gov/branches/dscb/oncology_drugset_explanation.html. Drugs and investigational agents were >95% pure by proton nuclear magnetic resonance (NMR) and liquid chromatography/mass spectrometry (LC/MS). Stock solutions were prepared at 400x in DMSO, stored at -70 degrees C, and diluted in fresh medium prior to their use. The final concentration of DMSO in cell culture wells never exceeded 0.25% (v/v). The FDA-approved anticancer drug set is available from the Developmental Therapeutics Program at https://dtp.cancer.gov/organization/dscb/obtaining/available_plates.htm. All drugs and investigational agents were tested over a range starting from a high concentration at or near the clinical Cmax and decreasing in half-log increments. If the clinical Cmax for an agent had not been determined, the highest concentration tested was 10 microM.
Cell Lines. The patient-derived cancer cell (PDC) lines: 292921-168-R-J2-PDC, K24384-001-R-PDC, and 521955-158-R2-J5-PDC pancreatic carcinomas, 556581-035-R-J1 ovarian carcinoma, 324938-238-R-J1-PDC, 855422-203-R-J1-PDC and 883617-216-R-J1-PDC urothelial bladder carcinomas, 743489-274-T-PDC renal cell carcinoma, 138582-R-J1 Merkel cell tumor, K60290-347-R-J1 and K57222-313-R-J1-PDC glioblastomas, 653999-131-R-J2-PDC, LG0703-F948-PDC, and 349418-098-R-PDC non-small cell lung carcinomas, 885512-296-R-J2-PDC, 171881-019-R-J1-PDC breast carcinomas and 186277-243-T-J2-PDC and 233499-124-R-J2-PDC colon carcinomas were obtained from the NCI Patient-Derived Models Repository (PDMR, https://pdmr.cancer.gov). The established cell lines NCI/ADR-RES (RRID:CVCL_14520 and OVCAR-5 (RRID:CVCL_1628) ovarian carcinomas, 786-O (RRID:CVCL_1051) and A498 (RRID:CVCL_A498) renal cell carcinoma, NCI-H211 (ATCC, cat. CRL-5824; RRID:CVCL_1529), NCI-H196 (ATCC, cat. CRL-5823, RRID:CVCL_1509), SW 1271 (ATCC, cat. CRL-2177, RRID:CVCL_1716) and NCI-H1876 (ATCC, cat. CRL-5902, RRID:CVCL_1503) small cell lung carcinomas, MDA-MB-231 (RRID:CVCL_0062) and MDA-MB-468 (RRID:CVCL_0419)breast carcinomas (10-12). Pooled donor human umbilical vein endothelial cells (HUVEC, Lonza, cat. CC-2519) and human mesenchymal stem cells (hMSC, Lonza, cat. PT-2501) were purchased from Lonza (Walkersville, MD).
Cell Culture. All cells were maintained in an incubator at 37 degrees C and 5% CO2 with 95% humidity. The PDC lines were cultured according to standard operating procedures established by the NCI PDMR (https://pdmr.cancer.gov). Briefly all PDCs were thawed and cultured in Matrigel-coated flasks prepared with a working solution of 1X Ham's F-12 nutrient mix, without supplementation (Invitrogen, Waltham, MA, cat. 11765054), 100 U/mL penicillin-streptomycin (Invitrogen, cat. 15140122), and 2.5% Matrigel (Corning Inc., Corning, NY, cat. 354248) for the first three passages. […]

[1] = curve of first compound, second compound 0.1 µM
[2] = curve of first compound, second compound 0.316 µM
[3] = curve of first compound, second compound 1 µM
[4] = curve of first compound, second compound 3.16 µM
[5] = curve of first compound, second compound 10 µM
[6] = second compound 0.1 µM, first compound 0.00949 µM
[7] = second compound 0.1 µM, first compound 0.03 µM
[8] = second compound 0.1 µM, first compound 0.0949 µM
[9] = second compound 0.1 µM, first compound 0.3 µM
[10] = second compound 0.1 µM, first compound 0.949 µM
[11] = second compound 0.1 µM, first compound 3 µM
[12] = second compound 0.316 µM, first compound 0.00949 µM
[13] = second compound 0.316 µM, first compound 0.03 µM
[14] = second compound 0.316 µM, first compound 0.0949 µM
[15] = second compound 0.316 µM, first compound 0.3 µM
[16] = second compound 0.316 µM, first compound 0.949 µM
[17] = second compound 0.316 µM, first compound 3 µM
[18] = second compound 1 µM, first compound 0.00949 µM
[19] = second compound 1 µM, first compound 0.03 µM
[20] = second compound 1 µM, first compound 0.0949 µM
[21] = second compound 1 µM, first compound 0.3 µM
[22] = second compound 1 µM, first compound 0.949 µM
[23] = second compound 1 µM, first compound 3 µM
[24] = second compound 3.16 µM, first compound 0.00949 µM
[25] = second compound 3.16 µM, first compound 0.03 µM
[26] = second compound 3.16 µM, first compound 0.0949 µM
[27] = second compound 3.16 µM, first compound 0.3 µM
[28] = second compound 3.16 µM, first compound 0.949 µM
[29] = second compound 3.16 µM, first compound 3 µM
[30] = second compound 10 µM, first compound 0.00949 µM
[31] = second compound 10 µM, first compound 0.03 µM
[32] = second compound 10 µM, first compound 0.0949 µM
[33] = second compound 10 µM, first compound 0.3 µM
[34] = second compound 10 µM, first compound 0.949 µM
[35] = second compound 10 µM, first compound 3 µM

| Compound | IC50 [1] [nM] | IC50 [2] [nM] | IC50 [3] [nM] | IC50 [4] [nM] | IC50 [5] [nM] | viability, T/C [6] [%] | viability, T/C [7] [%] | viability, T/C [8] [%] | viability, T/C [9] [%] | viability, T/C [10] [%] | viability, T/C [11] [%] | viability, T/C [12] [%] | viability, T/C [13] [%] | viability, T/C [14] [%] | viability, T/C [15] [%] | viability, T/C [16] [%] | viability, T/C [17] [%] | viability, T/C [18] [%] | viability, T/C [19] [%] | viability, T/C [20] [%] | other results |
| --- | --- | --- | --- | --- | --- | --- | --- | --- | --- | --- | --- | --- | --- | --- | --- | --- | --- | --- | --- | --- | --- |
| O=C(C=Cc1cccc(S(=O)(=O)Nc2ccccc2)c1)NO + NC1CC1c1ccc(-c2cccc(O)c2)cc1 | 1300 | 1300 | 1250 | 1110 | 840 | 111 | 107 | 111 | 97 | 66.1 | 8.04 | 107 | 107 | 109 | 96.1 | 66.3 | 7.18 | 106 | 110 | 110 | viability, T/C [21]: 92.5%; viability, T/C [22]: 63.9%; viability, T/C [23]: 7.4%; viability, T/C [24]: 98.5%; viability, T/C [25]: 99.2%; viability, T/C [26]: 110%; viability, T/C [27]: 90.7%; viability, T/C [28]: 57.4%; viability, T/C [29]: 4.98%; viability, T/C [30]: 92.5%; viability, T/C [31]: 96.9%; viability, T/C [32]: 92.2%; viability, T/C [33]: 87.2%; viability, T/C [34]: 45.6%; viability, T/C [35]: 2.44% |
| CCN(c1cc(-c2ccc(CN3CCOCC3)cc2)cc(C(=O)NCc2c(C)cc(C)[nH]c2=O)c1C)C1CCOCC1 |  |  |  |  |  |  |  |  |  |  |  |  |  |  |  |  |  |  |  |  | viability, T/C (compound 0.00949 µM): 100%; viability, T/C (compound 0.03 µM): 103% and 105%; viability, T/C (compound 0.0949 µM): 106% and 100%; viability, T/C (compound 0.3 µM): 104% and 102%; viability, T/C (compound 0.949 µM): 102% and 98%; viability, T/C (compound 3 µM): 97.4% and 96.9%; IC50 (curve of compound): > 3000 nM |
| CCN(c1cc(-c2ccc(CN3CCOCC3)cc2)cc(C(=O)NCc2c(C)cc(C)[nH]c2=O)c1C)C1CCOCC1 + NC1CC1c1ccc(-c2cccc(O)c2)cc1 | > 3000 | > 3000 | > 3000 | > 3000 | > 3000 | 99.5 | 101 | 98.7 | 94.3 | 95.7 | 96.2 | 104 | 105 | 107 | 103 | 97.6 | 94.8 | 98.8 | 101 | 99.3 | viability, T/C [21]: 102%; viability, T/C [22]: 84.8%; viability, T/C [23]: 86%; viability, T/C [24]: 88.6%; viability, T/C [25]: 97.7%; viability, T/C [26]: 95.3%; viability, T/C [27]: 96.8%; viability, T/C [28]: 84.4%; viability, T/C [29]: 86.3%; viability, T/C [30]: 87.8%; viability, T/C [31]: 87%; viability, T/C [32]: 85.5%; viability, T/C [33]: 87.3%; viability, T/C [34]: 80.4%; viability, T/C [35]: 83% |
